Tests used:
[1] = test system: IL1-β; assay: Inhibition of LPS-induced IL1-β in normal human PBMC (ELISA); assay type: cell-based; details: for IL-1β: LPS-stimulated PBMC supernatant; for IL-1βInhibition Ratio (%): LPS-stimulated PBMC
Excerpt: (§1) Materials: • 1) Cell: PBMC (Peripheral Blood […]) • 2) Drugs: Sophora flavescens flavonoids extract and Kurarinone (Exp. 1) • 3) Positive control: Dexamethason (DEX) • 4) Reagents: Ficoll-Paque Plus (Amersham Bioscience), LPS and dexamethason (CalBiochem.), TNFa ELISA (Enzyme Linked Immunosorbent Assay) Kit and IL1-β ELISA Kit (Jingmei Bioengineer Technology), DMSO (Dimethylsulfoxide) (Sigma)
(§2) a. PBMC cells are isolated from fresh blood by using of Ficoll-Paque Plus reagent according to the protocol that the manufacturer recommends. Cells are suspended in RPMI 1640 media containing 10% FBS. 100 μl of 1×10^5 cells/ml is seeded in each well of 96 well plate, 1×10^4 cells total in each well and three wells for each reaction.
(§3) b. Samples are added into cells (final concentrations are 10, 30, 100 ug/ml, respectively. Sample volume that is added into each well is 10 μl). Final concentration of the positive control, dexamethason is 10 μM. 10 μl of media is added into the cells as a negative control. Then the plate is incubated in 37° C., 5% CO2 incubator for 15 minutes, 10 μl of 100 μg/ml LPS was added to each well except for negative controls. Incubate in 37° C., 5% CO2 incubator overnight.
(§4) c. Spin the plate at 1000 rpm for 15 minutes, transfer supernatant from each well to a new plate, measure the concentrations of TNFα and IL1-β by using assay kits. [formula]

[2] = test system: TNFα; assay: Inhibition of LPS-induced TNFα in normal human PBMC (ELISA); assay type: cell-based; details: for TNFa: LPS-stimulated PBMC supernatant; for TNFa Inhibition Ratio (%): LPS-stimulated PBMC
Excerpt: as §1, §2, §3, §4

| SMILES | IL-1β ([1]; positive control 10 uM) [pg/mL] | IL-1βInhibition Ratio (%) ([1]; positive control 10 uM) | TNFa ([2]; positive control 10 uM) [pg/mL] | TNFa Inhibition Ratio (%) ([2]; positive control 10 uM) | IL-1β ([1]; sample 10 μg/ml) [pg/mL] | IL-1β ([1]; sample 30 μg/ml) [pg/mL] | IL-1β ([1]; sample 100 μg/ml) [pg/mL] | IL-1βInhibition Ratio (%) ([1]; sample 10 μg/ml) | IL-1βInhibition Ratio (%) ([1]; sample 30 μg/ml) | IL-1βInhibition Ratio (%) ([1]; sample 100 μg/ml) | TNFa ([2]; sample 10 μg/ml) [pg/mL] | TNFa ([2]; sample 30 μg/ml) [pg/mL] | TNFa ([2]; sample 100 μg/ml) [pg/mL] | TNFa Inhibition Ratio (%) ([2]; sample 10 μg/ml) | TNFa Inhibition Ratio (%) ([2]; sample 30 μg/ml) | TNFa Inhibition Ratio (%) ([2]; sample 100 μg/ml) |
| --- | --- | --- | --- | --- | --- | --- | --- | --- | --- | --- | --- | --- | --- | --- | --- | --- |
| C[C@@H]1C[C@H]2[C@@H]3CCC4=CC(=O)C=C[C@]4(C)[C@@]3(F)[C@@H](O)C[C@]2(C)[C@@]1(O)C(=O)CO [DEX, Dexamethason, reference compound] | 275.6 ± 5.3 | 72.9 ± 1.6 | 120.9 ± 3.4 | 61.3 ± 1.9 |  |  |  |  |  |  |  |  |  |  |  |  |
| C=C(C)[C@H](CC=C(C)C)Cc1c(O)cc(OC)c2c1O[C@H](c1ccc(O)cc1O)CC2=O [Kurarinone, 4H-1-Benzopyran-4-one, 2-(2,4-dihydroxyphenyl)-2,3-dihydro-7-hydroxy-5-methoxy-8-[5-methyl-2-(1-methylethenyl)-4-hexenyl]-] |  |  |  |  | 129.8 ± 8.4 | 80.5 ± 3.7 | 3.1 ± 0.3 | 62.4 ± 4.2 | 75.0 ± 4.1 | 99.0 ± 0.5 | 92.2 ± 2.7 | 39.5 ± 1.5 | 2.1 ± 0.3 | 52.5 ± 4.2 | 78.5 ± 4.1 | 98.8 ± 2.1 |

Source: patent publication US20050226943A1, “Extract of sophora flavescens flavonoids and uses thereof” (priority 2004, published 2005)
